# From article PMC11200585, “Prospects for Prostate Cancer Chemotherapy: Cytotoxic Evaluation and Mechanistic Insights of Quinolinequinones with ADME/PK Profile” (Biomedicines, 2024)
# Key:
# Assay type in all cases: cell-based, human
# A549/ATCC = assay: NCI-60 one-dose screen (non-small cell lung cancer); details: 10 µM single dose, 48 h
# Procedure: (§1) The obtained quinolinequinones were submitted to NCI, Bethesda, USA, and, as per standard protocol of NCI, all compounds were evaluated for their antiproliferative activity at single-dose assay (10 µM concentration in DMSO) on a panel of 60 cancer cell lines derived from leukemia, non-small-cell lung, colon, CNS, melanoma, ovarian, renal, prostate, and breast, as per protocol. Tested compounds were added to the microtiter culture plates followed by incubation for 48 h at 37 °C. Sulforhodamine B (SRB), a protein-binding dye, is used for endpoint determination. The percent of the growth of the treated cells was determined in comparison to the untreated control cells and the results of each tested compound were reported. Data from one-dose experiments pertain to the percentage growth at 10 μM [16, 17, 18].
# OVCAR-5 [1] = assay: NCI-60 five-dose assay (ovarian cancer); details: 48 h, SRB
# SK-MEL-5 = assay: NCI-60 five-dose assay (melanoma); details: 48 h, SRB
# SNB-19 [2] = assay: NCI-60 five-dose assay (CNS cancer); details: 48 h, SRB
# SF-295 [3] = assay: NCI-60 five-dose assay (CNS cancer); details: 48 h, SRB
# NCI-H23 = assay: NCI-60 five-dose assay (non-small cell lung cancer); details: 48 h, SRB
# HL-60(TB) [4] = assay: NCI-60 five-dose assay (leukemia); details: 48 h, SRB
# M14 = assay: NCI-60 five-dose assay (melanoma); details: 48 h, SRB
# MCF7 = assay: NCI-60 one-dose screen (breast cancer); details: 10 µM single dose, 48 h
# HS 578T = assay: NCI-60 one-dose screen (breast cancer); details: 10 µM single dose
# MDA-MB-231/ATCC = assay: NCI-60 one-dose screen (breast cancer); details: 10 µM single dose, 48 h
# SK-MEL-2 = assay: NCI-60 five-dose assay (melanoma); details: 48 h, SRB
# MALME-3M = assay: NCI-60 five-dose assay (melanoma); details: 48 h, SRB
# PC-3 [5] = assay: NCI-60 one-dose screen (prostate cancer); details: 10 µM single dose
# Procedure: as §1
# DU-145 = assay: NCI-60 one-dose screen (prostate cancer); details: 10 µM single dose, 48 h
# Procedure: as §1
# PC-3 [6] = assay: NCI-60 five-dose assay (prostate cancer); details: 48 h, SRB
# SF-295 [7] = assay: NCI-60 one-dose screen (CNS cancer); details: 10 µM single dose, 48 h
# Procedure: as §1
# SNB-19 [8] = assay: NCI-60 one-dose screen (CNS cancer); details: 10 µM single dose, 48 h
# Procedure: as §1
# SNB-75 = assay: NCI-60 one-dose screen (CNS cancer); details: 10 µM single dose, 48 h
# Procedure: as §1
# U251 = assay: NCI-60 one-dose screen (CNS cancer); details: 10 µM single dose, 48 h
# Procedure: as §1
# SF-539 = assay: NCI-60 one-dose screen (CNS cancer); details: 10 µM single dose, 48 h
# Procedure: as §1
# SF-268 = assay: NCI-60 one-dose screen (CNS cancer); details: 10 µM single dose, 48 h
# Procedure: as §1
# UO-31 = assay: NCI-60 five-dose assay (renal cancer); details: 48 h, SRB
# MDA-MB-468 = assay: NCI-60 five-dose assay (breast cancer); details: 48 h, SRB
# T-47D = assay: NCI-60 five-dose assay (breast cancer); details: 48 h, SRB
# OVCAR-5 [9] = assay: NCI-60 one-dose screen (ovarian cancer); details: 10 µM single dose, 48 h
# Procedure: as §1
# OVCAR-4 = assay: NCI-60 one-dose screen (ovarian cancer); details: 10 µM single dose, 48 h
# Procedure: as §1
# NCI/ADR-RES = assay: NCI-60 one-dose screen (ovarian cancer); details: 10 µM single dose, 48 h
# Procedure: as §1
# IGROV1 = assay: NCI-60 one-dose screen (ovarian cancer); details: 10 µM single dose, 48 h
# Procedure: as §1
# OVCAR-8 = assay: NCI-60 one-dose screen (ovarian cancer); details: 10 µM single dose
# Procedure: as §1
# SK-OV-3 = assay: NCI-60 one-dose screen (ovarian cancer); details: 10 µM single dose, 48 h
# Procedure: as §1
# HCT-15 = assay: NCI-60 five-dose assay (colon cancer); details: 48 h, SRB
# RPMI-8226 = assay: NCI-60 one-dose screen (leukemia); details: 10 µM single dose, 48 h
# Procedure: as §1
# SR = assay: NCI-60 one-dose screen (leukemia); details: 10 µM single dose, 48 h
# Procedure: as §1
# CCRF-CEM = assay: NCI-60 one-dose screen (leukemia); details: 10 µM single dose, 48 h
# Procedure: as §1
# K-562 = assay: NCI-60 one-dose screen (leukemia)
# Procedure: as §1
# HL-60(TB) [10] = assay: NCI-60 one-dose screen (leukemia); details: 10 µM single dose, 48 h
# Procedure: as §1
# MOLT-4 = assay: NCI-60 one-dose screen (leukemia); details: 10 µM single dose, 48 h
# Procedure: as §1
# ACHN = assay: NCI-60 five-dose assay (renal cancer); details: 48 h, SRB
# [11] = Homo sapiens, read-out: LC50 (the source's name)
compound,measurement,setting,value
CCOc1ccccc1NC1=C(Cl)C(=O)c2nc(C)ccc2C1=O [AQQ2],GP (growth percentage),A549/ATCC,59.11%
same,TGI,OVCAR-5 [1],3.33 µM
same,GI50,OVCAR-5 [1]; Homo sapiens,1.84 µM
same,LC50 (lethal concentration 50%),OVCAR-5 [1]; Homo sapiens,6.03 µM
same,TGI,SK-MEL-5,3.13 µM
same,GI50,SK-MEL-5; Homo sapiens,1.74 µM
same,CC50,SK-MEL-5; [11],5.65 µM
same,TGI,SNB-19 [2],3.97 µM
same,GI50,SNB-19 [2]; Homo sapiens,1.8 µM
same,CC50,SNB-19 [2]; [11],8.73 µM
same,TGI,SF-295 [3],4.20 µM
same,GI50,SF-295 [3]; Homo sapiens,2.03 µM
same,LC50 (50% lethal concentration),SF-295 [3]; Homo sapiens,8.7 µM
same,TGI,NCI-H23,3.55 µM
same,GI50,NCI-H23; Homo sapiens,1.44 µM
same,CC50,NCI-H23; [11],8.71 µM
same,TGI,HL-60(TB) [4],2.92 µM
same,GI50,HL-60(TB) [4]; Homo sapiens,1.03 µM
same,CC50,HL-60(TB) [4]; [11],8.29 µM
same,TGI,M14,2.83 µM
same,GI50,M14; Homo sapiens,1.46 µM
same,LC50,M14; Homo sapiens,5.5 µM
same,GP (growth percentage),MCF7,−59.68%
same,GP (growth percentage),HS 578T; 48 h,1.05%
same,inhibition at 10 µM,HS 578T; Homo sapiens,99%
same,GP (growth percentage),MDA-MB-231/ATCC,−63.63%
same,TGI,SK-MEL-2,2.86 µM
same,GI50,SK-MEL-2; Homo sapiens,1.44 µM
same,CC50,SK-MEL-2; [11],5.69 µM
same,TGI,MALME-3M,2.77 µM
same,GI50,MALME-3M; Homo sapiens,1.36 µM
same,LC50,MALME-3M; Homo sapiens,5.64 µM
same,GP (growth percentage),PC-3 [5]; 48 h,4.34%
same,inhibition at 10 µM,PC-3 [5]; Homo sapiens,95.7%
same,GP (growth percentage),DU-145,−85.02%
same,TGI,PC-3 [6],2.77 µM
same,GI50,PC-3 [6]; Homo sapiens,1.26 µM
same,CC50,PC-3 [6]; [11],6.11 µM
same,GP (growth percentage),SF-295 [7],90.72%
same,GP (growth percentage),SNB-19 [8],46.47%
same,GP (growth percentage),SNB-75,101.38%
same,GP (growth percentage),U251,37.89%
same,GP (growth percentage),SF-539,−37.33%
same,GP (growth percentage),SF-268,32.75%
same,TGI,UO-31,2.71 µM
same,GI50,UO-31; Homo sapiens,1.4 µM
same,LC50 (lethal concentration 50%),UO-31; Homo sapiens,5.23 µM
same,TGI,MDA-MB-468,2.88 µM
same,GI50,MDA-MB-468; Homo sapiens,1.45 µM
same,LC50,MDA-MB-468; Homo sapiens,5.71 µM
same,TGI,T-47D,3.17 µM
same,GI50,"T-47D; Homo sapiens, T47D",0.467 µM
same,CC50,"T-47D; Homo sapiens, T47D, read-out: LC50 (the source's name)",> 100 µM
same,GP (growth percentage),OVCAR-5 [9],40.78%
same,GP (growth percentage),OVCAR-4,−91.97%
same,GP (growth percentage),NCI/ADR-RES,−9.58%
same,GP (growth percentage),IGROV1,−57.52%
same,GP (growth percentage),OVCAR-8; 48 h,0.93%
same,inhibition at 10 µM,OVCAR-8; Homo sapiens,99.1%
same,GP (growth percentage),SK-OV-3,85.34%
same,TGI,HCT-15,2.55 µM
same,GI50,HCT-15; Homo sapiens,1.13 µM
same,CC50,HCT-15; [11],5.76 µM
same,GP (growth percentage),RPMI-8226,−35.12%
same,GP (growth percentage),SR,−12.75%
same,GP (growth percentage),CCRF-CEM,−6.33%
same,GP (growth percentage),"K-562; 10 µM single dose, 48 h",1.26%
same,inhibition at 10 µM,"K-562; Homo sapiens, K562, 10 µM single dose",98.7%
same,GP (growth percentage),HL-60(TB) [10],−36.75%
same,GP (growth percentage),MOLT-4,−24.89%
same,TGI,ACHN,2.69 µM
same,GI50,ACHN; Homo sapiens,1.35 µM
same,LC50,ACHN; Homo sapiens,5.35 µM
